Data from patent US9850283B2, “Macrocyclic inhibitors of the PD-1/PD-L1 and CD80(B7-1)/PD-L1 protein/protein interactions” (BRISTOL-MYERS SQUIBB COMPANY, priority 2013, dated 2017).
Positions of bridges follow the written chain, without caps; N, C: chain ends. Non-standard residues stand in square brackets, D forms with d. Residues, ends and D or L forms follow the SMILES beside them. ξ: configuration not given here. Phe(4-SO2NH2) = N[C@@H](Cc1ccc(S(N)(=O)=O)cc1)C(=O)O; Ala(indol-4-yl) = N[C@@H](Cc1cccc2[nH]ccc12)C(=O)O; Phe(4-COOH) = N[C@@H](Cc1ccc(C(=O)O)cc1)C(=O)O; Ala(4-thiazolyl) = N[C@@H](Cc1cscn1)C(=O)O; Phe(3-OMe) = COc1cccc(C[C@H](N)C(=O)O)c1; Phe(3-Me) = Cc1cccc(C[C@H](N)C(=O)O)c1; Bta = N[C@@H](Cc1csc2ccccc12)C(=O)O; Hyp = O=C(O)[C@@H]1C[C@@H](O)CN1; NMeNle = CCCC[C@H](NC)C(=O)O; Pen = CC(C)(S)[C@H](N)C(=O)O; ξY = NC(Cc1ccc(O)cc1)C(=O)O; NMeA = CN[C@@H](C)C(=O)O; Dap = NC[C@H](N)C(=O)O; ξP = O=C(O)C1CCCN1; Sar = CNCC(=O)O

Columns and labels:
[1] = molecular target: T1, Human PD-L1/PD-1 (Homo sapiens, UniProt Q9NZQ7); experiment: HTRF PD-1-Ig/PD-L1-His binding assay (human PD-L1); details: cluster symbol; read-out: HTRF IC50 cluster
T1 construct: made in house; host or cells: HEK293T
How it was run: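 The time-resolved fluorescence signal comes from Eu-cryptate anti-Ig (1 nM) and APC anti-His (20 nM) antibodies bound to a PD-1-Ig/PD-L1-His complex. Both partners lack transmembrane regions.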

[2] = molecular target: T2, LK35.2-hPD-L1 cells / PE-labeled PD-1-Ig (Homo sapiens, UniProt Q9NZQ7); experiment: LK35.2-hPD-L1 cell binding high-content screening assay; assay type: cell-based; details: cluster symbol; cell line of CBA not given (LK35.2-hPD-L1 or 293T-hPD-L1); read-out: CBA IC50 cluster
T2 construct: expressed in transfected cells; host or cells: LK35.2 mouse B cell line
How it was run: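 Compound effect on PD-1/PD-L1 binding is measured by imaging cell-associated phycoerythrin signal. Human PD-1-Ig (PE on Ig tag, 1 nM final) is applied with compound to a murine B cell line overexpressing human PD-L1 for 1 h at 37 °C in serum-containing RPMI.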

T1 sequence (Q9NZQ7 with tags, fused parts or gaps): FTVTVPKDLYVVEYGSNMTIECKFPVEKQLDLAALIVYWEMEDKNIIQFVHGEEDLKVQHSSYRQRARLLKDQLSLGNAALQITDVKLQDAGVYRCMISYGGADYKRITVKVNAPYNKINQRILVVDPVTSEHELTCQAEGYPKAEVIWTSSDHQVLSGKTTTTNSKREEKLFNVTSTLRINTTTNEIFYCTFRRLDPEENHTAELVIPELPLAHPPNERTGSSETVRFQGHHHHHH
T2 sequence (Q9NZQ7 19-290): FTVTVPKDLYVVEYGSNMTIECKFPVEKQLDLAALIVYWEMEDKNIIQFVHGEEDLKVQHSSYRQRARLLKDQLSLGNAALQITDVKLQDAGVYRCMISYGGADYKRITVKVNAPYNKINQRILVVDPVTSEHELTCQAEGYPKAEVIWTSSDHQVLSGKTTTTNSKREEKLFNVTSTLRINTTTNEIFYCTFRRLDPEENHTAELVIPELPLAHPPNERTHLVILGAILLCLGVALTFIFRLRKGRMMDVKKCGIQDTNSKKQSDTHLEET

## CCCC[C@H]1C(=O)N(C)[C@@H](CCCC)C(=O)N[C@@H](CCCNC(=N)N)C(=O)N[C@H](C(=O)NCC(N)=O)C(C)(C)SCC(=O)N[C@@H](Cc2ccccc2)C(=O)N(C)[C@@H](C)C(=O)N[C@@H](CC(N)=O)C(=O)N2CCC[C@H]2C(=O)N[C@@H](Cc2cnc[nH]2)C(=O)N[C@@H](CC(C)C)C(=O)N(C)CC(=O)N[C@@H](Cc2c[nH]c3ccccc23)C(=O)N[C@@H](CO)C(=O)N[C@@H](Cc2c[nH]c3ccccc23)C(=O)N1C [Example 1083] ({CH2CO}-F[NMeA]NPHL[Sar]WSW[NMeNle][NMeNle]R[Pen]G-NH2; thioether N-14)
[1]
  IC50: 0.385 to 6.74 nM
[2]
  IC50: 4.78 to 72.9 nM

## CCCC[C@H]1C(=O)N(C)[C@@H](CCCC)C(=O)N[C@@H](CCCNC(=N)N)C(=O)N[C@H](C(=O)NCC(N)=O)CSCC(=O)N[C@@H](Cc2ccc(O)cc2)C(=O)N(C)[C@@H](C)C(=O)N[C@@H](CC(N)=O)C(=O)N2CCC[C@H]2C(=O)N[C@@H](CN)C(=O)N[C@@H](CC(C)C)C(=O)N2CCC[C@H]2C(=O)N[C@@H](Cc2c[nH]c3ccccc23)C(=O)N[C@@H](CO)C(=O)N[C@@H](Cc2csc3ccccc23)C(=O)N1C [Example 1084] ({CH2CO}-Y[NMeA]NP[Dap]LPWS[Bta][NMeNle][NMeNle]RCG-NH2; thioether N-14)
[1]
  IC50: 0.385 to 6.74 nM
[2]
  IC50: 0.158 to 4.71 nM

## CCCC[C@H]1C(=O)N(C)[C@@H](CCCC)C(=O)N[C@@H](CCCNC(=N)N)C(=O)N[C@H](C(=O)NCC(N)=O)CSCC(=O)N[C@@H](Cc2ccccc2)C(=O)N(C)[C@@H](C)C(=O)N[C@@H](CC(N)=O)C(=O)N2CCC[C@H]2C(=O)N[C@@H](Cc2cnc[nH]2)C(=O)N[C@@H](CC(C)C)C(=O)N(C)CC(=O)N[C@@H](Cc2cccc(OC)c2)C(=O)N[C@@H](CO)C(=O)N[C@@H](Cc2c[nH]c3ccccc23)C(=O)N1C [Example 1085] ({CH2CO}-F[NMeA]NPHL[Sar][Phe(3-OMe)]SW[NMeNle][NMeNle]RCG-NH2; thioether N-14)
[1]
  IC50: > 30.5 nM
[2]
  IC50: > 74.3 nM

## CCCC[C@H]1C(=O)N(C)[C@@H](CCCC)C(=O)N[C@@H](CCCNC(=N)N)C(=O)N[C@H](C(=O)NCC(N)=O)CSCC(=O)N[C@@H](Cc2ccccc2)C(=O)N(C)[C@@H](C)C(=O)N[C@@H](CC(N)=O)C(=O)N2CCC[C@H]2C(=O)N[C@@H](Cc2cnc[nH]2)C(=O)N[C@@H](CC(C)C)C(=O)N(C)CC(=O)N[C@@H](Cc2cccc(C)c2)C(=O)N[C@@H](CO)C(=O)N[C@@H](Cc2c[nH]c3ccccc23)C(=O)N1C [Example 1086] ({CH2CO}-F[NMeA]NPHL[Sar][Phe(3-Me)]SW[NMeNle][NMeNle]RCG-NH2; thioether N-14)
[1]
  IC50: > 30.5 nM
[2]
  IC50: > 74.3 nM

## CCCC[C@H]1C(=O)N(C)[C@@H](CCCC)C(=O)N[C@@H](CCCNC(=N)N)C(=O)N[C@H](C(=O)NCC(N)=O)CSCC(=O)N[C@@H](Cc2ccccc2)C(=O)N(C)[C@@H](C)C(=O)N[C@@H](CC(N)=O)C(=O)N2CCC[C@H]2C(=O)N[C@@H](Cc2cnc[nH]2)C(=O)N[C@@H](CC(C)C)C(=O)N2C[C@H](O)C[C@H]2C(=O)N[C@@H](Cc2c[nH]c3ccccc23)C(=O)N[C@@H](CO)C(=O)N[C@@H](Cc2c[nH]c3ccccc23)C(=O)N1C [Example 1087] ({CH2CO}-F[NMeA]NPHL[Hyp]WSW[NMeNle][NMeNle]RCG-NH2; thioether N-14)
[1]
  IC50: 0.385 to 6.74 nM
[2]
  IC50: 0.158 to 4.71 nM

## CCCC[C@H]1C(=O)N(C)[C@@H](CCCC)C(=O)N[C@@H](CCCNC(=N)N)C(=O)N[C@H](C(=O)NCC(N)=O)CSCC(=O)N[C@@H](Cc2ccccc2)C(=O)N(C)[C@@H](C)C(=O)N[C@@H](CC(N)=O)C(=O)N2CCC[C@H]2C(=O)N[C@@H](CO)C(=O)N[C@@H](CC(C)C)C(=O)N(C)CC(=O)N[C@@H](Cc2c[nH]c3ccccc23)C(=O)N[C@@H](CO)C(=O)N[C@@H](Cc2c[nH]c3ccccc23)C(=O)N1C [Example 1088] ({CH2CO}-F[NMeA]NPSL[Sar]WSW[NMeNle][NMeNle]RCG-NH2; thioether N-14)
[1]
  IC50: 6.76 to 30.3 nM
[2]
  IC50: 4.78 to 72.9 nM

## CCCC[C@H]1C(=O)N(C)[C@@H](CCCC)C(=O)N[C@@H](CCCNC(=N)N)C(=O)N[C@H](C(=O)NCC(N)=O)CSCC(=O)N[C@@H](Cc2ccccc2)C(=O)N(C)[C@@H](C)C(=O)N[C@@H](CCC(N)=O)C(=O)N2CCC[C@H]2C(=O)N[C@@H](Cc2cnc[nH]2)C(=O)N[C@@H](CC(C)C)C(=O)N(C)CC(=O)N[C@@H](Cc2c[nH]c3ccccc23)C(=O)N[C@@H](CO)C(=O)N[C@@H](Cc2c[nH]c3ccccc23)C(=O)N1C [Example 1089] ({CH2CO}-F[NMeA]QPHL[Sar]WSW[NMeNle][NMeNle]RCG-NH2; thioether N-14)
[1]
  IC50: > 30.5 nM
[2]
  IC50: > 74.3 nM

## CCCC[C@H]1C(=O)N(C)[C@@H](CCCC)C(=O)N[C@@H](CCCNC(=N)N)C(=O)N[C@H](C(=O)NCC(N)=O)CSCC(=O)N[C@@H](Cc2ccc(O)cc2)C(=O)N(C)[C@@H](C)C(=O)N[C@@H](CC(N)=O)C(=O)N2CCC[C@H]2C(=O)N[C@@H](Cc2cnc[nH]2)C(=O)N[C@@H](CCC(=O)O)C(=O)N2CCC[C@H]2C(=O)N[C@@H](Cc2c[nH]c3ccccc23)C(=O)N[C@@H](CO)C(=O)N[C@@H](Cc2c[nH]c3ccccc23)C(=O)N1C [Example 1090] ({CH2CO}-Y[NMeA]NPHEPWSW[NMeNle][NMeNle]RCG-NH2; thioether N-14)
[1]
  IC50: 0.385 to 6.74 nM
[2]
  IC50: 0.158 to 4.71 nM

## CCCC[C@H]1C(=O)N(C)[C@@H](CCCC)C(=O)N[C@@H](CCCNC(=N)N)C(=O)N[C@H](C(=O)NCC(N)=O)CSCC(=O)NC(Cc2ccc(O)cc2)C(=O)N(C)[C@@H](C)C(=O)N[C@@H](CC(N)=O)C(=O)N2CCCC2C(=O)N[C@@H](CN)C(=O)N[C@@H](CCC(=O)O)C(=O)N2CCC[C@H]2C(=O)N[C@@H](Cc2c[nH]c3ccccc23)C(=O)N[C@@H](CO)C(=O)N[C@@H](Cc2c[nH]c3ccccc23)C(=O)N1C (stereo partly shown) [Example 1091] ({CH2CO}-[ξY][NMeA]N[ξP][Dap]EPWSW[NMeNle][NMeNle]RCG-NH2; thioether N-14)
[1]
  IC50: 0.385 to 6.74 nM
[2]
  IC50: 0.158 to 4.71 nM

## CCCC[C@H]1C(=O)N(C)[C@@H](CCCC)C(=O)N[C@@H](CCCNC(=N)N)C(=O)N[C@H](C(=O)NCC(N)=O)CSCC(=O)N[C@@H](Cc2ccccc2)C(=O)N(C)[C@@H](C)C(=O)N[C@@H](CC(=O)O)C(=O)N2CCC[C@H]2C(=O)N[C@@H](Cc2cnc[nH]2)C(=O)N[C@@H](CC(C)C)C(=O)N(C)CC(=O)N[C@@H](Cc2c[nH]c3ccccc23)C(=O)N[C@@H](CO)C(=O)N[C@@H](Cc2c[nH]c3ccccc23)C(=O)N1C [Example 1092] ({CH2CO}-F[NMeA]DPHL[Sar]WSW[NMeNle][NMeNle]RCG-NH2; thioether N-14)
[1]
  IC50: 6.76 to 30.3 nM
[2]
  IC50: 4.78 to 72.9 nM

## CCCC[C@H]1C(=O)N(C)[C@@H](CCCC)C(=O)N[C@@H](CCCNC(=N)N)C(=O)N[C@H](C(=O)NCC(N)=O)CSCC(=O)N[C@@H](Cc2ccc(S(N)(=O)=O)cc2)C(=O)N(C)[C@@H](C)C(=O)N[C@@H](CC(N)=O)C(=O)N2CCC[C@H]2C(=O)N[C@@H](Cc2cnc[nH]2)C(=O)N[C@@H](CC(C)C)C(=O)N(C)CC(=O)N[C@@H](Cc2c[nH]c3ccccc23)C(=O)N[C@@H](CO)C(=O)N[C@@H](Cc2c[nH]c3ccccc23)C(=O)N1C [Example 1093] ({CH2CO}-[Phe(4-SO2NH2)][NMeA]NPHL[Sar]WSW[NMeNle][NMeNle]RCG-NH2; thioether N-14)
[1]
  IC50: > 30.5 nM
[2]
  IC50: > 74.3 nM

## CCCC[C@H]1C(=O)N(C)[C@@H](CCCC)C(=O)N[C@@H](CCCNC(=N)N)C(=O)N[C@H](C(=O)NCC(N)=O)CSCC(=O)N[C@@H](Cc2cccc3[nH]ccc23)C(=O)N(C)[C@@H](C)C(=O)N[C@@H](CC(N)=O)C(=O)N2CCC[C@H]2C(=O)N[C@@H](Cc2cnc[nH]2)C(=O)N[C@@H](CC(C)C)C(=O)N(C)CC(=O)N[C@@H](Cc2c[nH]c3ccccc23)C(=O)N[C@@H](CO)C(=O)N[C@@H](Cc2c[nH]c3ccccc23)C(=O)N1C [Example 1094] ({CH2CO}-[Ala(indol-4-yl)][NMeA]NPHL[Sar]WSW[NMeNle][NMeNle]RCG-NH2; thioether N-14)
[1]
  IC50: 6.76 to 30.3 nM
[2]
  IC50: 0.158 to 4.71 nM

## CCCC[C@H]1C(=O)N(C)[C@@H](CCCC)C(=O)N[C@@H](CCCNC(=N)N)C(=O)N[C@H](C(=O)NCC(N)=O)CSCC(=O)N[C@@H](Cc2ccc(C(=O)O)cc2)C(=O)N(C)[C@@H](C)C(=O)N[C@@H](CC(N)=O)C(=O)N2CCC[C@H]2C(=O)N[C@@H](Cc2cnc[nH]2)C(=O)N[C@@H](CC(C)C)C(=O)N(C)CC(=O)N[C@@H](Cc2c[nH]c3ccccc23)C(=O)N[C@@H](CO)C(=O)N[C@@H](Cc2c[nH]c3ccccc23)C(=O)N1C [Example 1095] ({CH2CO}-[Phe(4-COOH)][NMeA]NPHL[Sar]WSW[NMeNle][NMeNle]RCG-NH2; thioether N-14)
[1]
  IC50: > 30.5 nM
[2]
  IC50: > 74.3 nM

## CCCC[C@H]1C(=O)N(C)[C@@H](CCCC)C(=O)N[C@@H](CCCNC(=N)N)C(=O)N[C@H](C(=O)NCC(N)=O)CSCC(=O)N[C@@H](Cc2cscn2)C(=O)N(C)[C@@H](C)C(=O)N[C@@H](CC(N)=O)C(=O)N2CCC[C@H]2C(=O)N[C@@H](Cc2cnc[nH]2)C(=O)N[C@@H](CC(C)C)C(=O)N(C)CC(=O)N[C@@H](Cc2c[nH]c3ccccc23)C(=O)N[C@@H](CO)C(=O)N[C@@H](Cc2c[nH]c3ccccc23)C(=O)N1C [Example 1096] ({CH2CO}-[Ala(4-thiazolyl)][NMeA]NPHL[Sar]WSW[NMeNle][NMeNle]RCG-NH2; thioether N-14)
[1]
  IC50: > 30.5 nM
[2]
  IC50: > 74.3 nM
